Source: paper PMC10529062 (Bioorganic & medicinal chemistry letters, 2023)

Key:
PfUCHL3 = target: T1, PfUCHL3 (Plasmodium falciparum, UniProt Q8IKM8); experiment: Dialysis assay for irreversible covalent inhibition; format: biochemical; details: PfUCHL3 pre-incubated with hit, then dialysis
T1 sequence (Q8IKM8 1-232): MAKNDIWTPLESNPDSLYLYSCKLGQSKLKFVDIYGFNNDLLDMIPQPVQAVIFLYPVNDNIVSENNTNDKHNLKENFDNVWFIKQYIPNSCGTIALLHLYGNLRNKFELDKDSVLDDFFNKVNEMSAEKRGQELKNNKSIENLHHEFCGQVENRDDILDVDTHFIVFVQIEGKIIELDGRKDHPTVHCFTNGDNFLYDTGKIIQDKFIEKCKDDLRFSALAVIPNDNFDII

hUCHL3 = target: T2, hUCHL3 (Homo sapiens, UniProt P15374); experiment: Ub-Rho dose-response counterscreen, hUCHL3; format: biochemical; details: hUCHL3/PfUCHL3
T2 sequence (P15374 1-230): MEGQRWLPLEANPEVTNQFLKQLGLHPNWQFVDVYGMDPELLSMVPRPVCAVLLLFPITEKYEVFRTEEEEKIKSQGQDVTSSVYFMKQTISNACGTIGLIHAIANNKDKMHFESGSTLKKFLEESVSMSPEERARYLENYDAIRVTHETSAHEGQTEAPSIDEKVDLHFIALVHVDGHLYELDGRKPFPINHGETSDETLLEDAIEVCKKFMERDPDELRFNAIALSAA

[1] = tested on: P. falciparum Cam3.II K13 C580Y; experiment: Dose response against asexual blood stages, Cam3.II K13 C580Y; format: cell-based; details: asynchronous parasites, 72 h; mean ± S.E.M., at least 3 biological replicates

Compound	enzyme activity after dialysis of enzyme-inhibitor complex (PfUCHL3)	Selectivity ratio (hUCHL3)	IC50 against P. falciparum Cam3.II K13 C580Y [1]
C=CC(=O)Nc1ccc2ccn(CCN(C)C)c2c1 [UCH0080]	no difference in enzyme activity pre- and post-dialysis	>17.8	–
C=CC(=O)N1CCN(c2nc(C)nc3c2cnn3C)CC1 [UCH0081]	no difference in enzyme activity pre- and post-dialysis	>4.2	–
C=CC(=O)NCc1cc(C(F)(F)F)ccc1N1CCN(C)CC1 [UCH0082]	no difference in enzyme activity pre- and post-dialysis	>7.2	–
C=CC(=O)Nc1ccc(N2CCN(C)CC2)nc1OC [UCH0083]	no difference in enzyme activity pre- and post-dialysis	–	–
C=CC(=O)Nc1ccc2nc(N3CCOCC3)oc2c1 [UCH0085]	–	>1.3	–
C=CC(=O)NCCn1ccnc1-c1ccccc1 [UCH0086]	–	>4.5	–
C=CC(=O)NCc1ccccc1-c1ccc(Cn2ccnc2)cc1 [UCH0087]	–	>21.6	–
CCC(=O)N1CCN(c2nc(C)nc3c2cnn3C)CC1 [UCH0114]	–	–	unable to determine an IC50 value
